Test results: patent US6737383B1, “Herbicidal oxadiazolidines” (priority 1999, dated 2004)

Legend:
wild oat = test: Test B pre/postemergence wild oat; assay type: in vivo, Avena fatua
In short: (§1)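 Response is a visual 0-to-10 score relative to untreated plants, where 0 means no effect and 10 means complete control, taken twelve to sixteen days after application. Treatments went onto soil at planting and onto foliage of 1- to 4-leaf plants, using a surfactant-containing non-phytotoxic solvent.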

soybean = test: Test B pre/postemergence soybean; assay type: in vivo, Glycine max
In short: as §1

smallflower flatsedge = test: Test B flood test smallflower flatsedge; assay type: in vivo, Cyperus difformis
In short: (§2)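 Read-out is a visual response score from 0 (no effect) to 10 (complete control), assigned by comparison with untreated controls. Treatment was applied at the 2-leaf stage, and plants stayed in the greenhouse for twelve to sixteen days before scoring.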

crabgrass = test: Test B pre/postemergence crabgrass; assay type: in vivo, Digitaria sanguinalis
In short: as §1

purple nutsedge = test: Test B pre/postemergence purple nutsedge; assay type: in vivo, Cyperus rotundus
In short: as §1

corn = test: Test B pre/postemergence corn; assay type: in vivo, Zea mays
In short: as §1

rape = test: Test B pre/postemergence rape; assay type: in vivo, Brassica napus
In short: as §1

surinam grass = test: Test B pre/postemergence surinam grass; assay type: in vivo, Brachiaria decumbens
In short: as §1

bedstraw = test: Test B pre/postemergence bedstraw; assay type: in vivo, Galium aparine
In short: as §1

blackgrass = test: Test B pre/postemergence blackgrass; assay type: in vivo, Alopecurus myosuroides
In short: as §1

wheat = test: Test B pre/postemergence wheat; assay type: in vivo, Triticum aestivum
In short: as §1

sugar beet = test: Test B pre/postemergence sugar beet; assay type: in vivo, Beta vulgaris
In short: as §1

pigweed = test: Test B pre/postemergence pigweed; assay type: in vivo, Amaranthus retroflexus
In short: as §1

velvetleaf = test: Test B pre/postemergence velvetleaf; assay type: in vivo, Abutilon theophrasti
In short: as §1

duck salad = test: Test B flood test duck salad; assay type: in vivo, Heteranthera limosa
In short: as §2

[1] = Postemergence, Rate 62 g/ha, scale of 0 to 10, 0 is no effect, 10 is complete control
[2] = Postemergence, Rate 125 g/ha, scale 0 to 10, 0 is no effect, 10 is complete control
[3] = Postemergence, Rate 500 g/ha, scale 0 to 10, 0 is no effect, 10 is complete control
[4] = Preemergence, Rate 62 g/ha, scale of 0 to 10 where 0 is no effect and 10 is complete control
[5] = Preemergence, Rate 125 g/ha, scale 0 to 10, 0 is no effect, 10 is complete control
[6] = Rate 250 g/ha, Postemergence, scale of 0 to 10 where 0 is no effect and 10 is complete control
[7] = Preemergence, Rate 500 g/ha, scale of 0 to 10 where 0 is no effect and 10 is complete control
[8] = Rate 62 g/ha, flood test species, Pre-emergence, visual evaluation after twelve to sixteen days
[9] = Rate 125 g/ha, under heading Pre-emergence, flood test species, visual evaluation after twelve to sixteen days
[10] = Rate 250 g/ha, Pre-emergence (flood test species), scale 0 to 10, 0 is no effect, 10 is complete control
[11] = Rate 500 g/ha, Pre-emergence section of Table B, 0 to 10 scale (0 no effect, 10 complete control)

## CCCCCn1c(=O)on(C(=O)N(c2ccc(Cl)cc2)C(C)C)c1=O [Compound 528]
Wild oat; [1]
  Wild oats plant response rating: 0
Wild oat; [2]
  Wild oats plant response rating: 0
Wild oat; [3]
  Plant response rating, Wild oats: 0
Wild oat; [4]
  Plant response rating, Wild oats: 0
Wild oat; [5]
  Wild oats plant response rating: 0
Wild oat; Preemergence, Rate 250 g/ha
  Wild oats plant response rating (0 to 10 scale): 0
Wild oat; [6]
  Plant response rating, Wild oats: 0
soybean; [1]
  Soybean plant response rating: 3
soybean; [2]
  Soybean plant response rating: 3
soybean; [3]
  Plant response rating, Soybean: 5
soybean; [4]
  Plant response rating, Soybean: 0
soybean; [5]
  Soybean plant response rating: 0
soybean; Preemergence, Rate 250 g/ha
  Soybean plant response rating (0 to 10 scale): 0
soybean; [7]
  Soybean plant response rating: 0
soybean; [6]
  Plant response rating, Soybean: 5
Smallflower flatsedge; [8]
  Plant response rating, S. Flatsedge (0 to 10 scale, 0 is no effect, 10 is complete control): 0
Smallflower flatsedge; [9]
  S. Flatsedge plant response rating (0 to 10 scale, 0 is no effect, 10 is complete control): 0
Smallflower flatsedge; [10]
  S. Flatsedge plant response rating: 0
Smallflower flatsedge; [11]
  S. Flatsedge plant response rating: 0
crabgrass; [1]
  Crabgrass plant response rating: 3
crabgrass; [2]
  Crabgrass plant response rating: 9
crabgrass; [3]
  Plant response rating, Crabgrass: 10
crabgrass; [4]
  Plant response rating, Crabgrass: 7
crabgrass; [5]
  Crabgrass plant response rating: 9
crabgrass; Preemergence, Rate 250 g/ha
  Crabgrass plant response rating (0 to 10 scale): 10
crabgrass; [7]
  Crabgrass plant response rating: 10
crabgrass; [6]
  Plant response rating, Crabgrass: 9
Purple nutsedge; [2]
  Nutsedge plant response rating: 0
Purple nutsedge; [3]
  Plant response rating, Nutsedge: 6
Purple nutsedge; [4]
  Plant response rating, Nutsedge: 0
Purple nutsedge; [5]
  Nutsedge plant response rating: 0
Purple nutsedge; Preemergence, Rate 250 g/ha
  Nutsedge plant response rating (0 to 10 scale): 0
Purple nutsedge; [7]
  Nutsedge plant response rating: 0
Purple nutsedge; [6]
  Plant response rating, Nutsedge: 0
corn; [1]
  Corn plant response rating: 0
corn; [2]
  Corn plant response rating: 0
corn; [3]
  Plant response rating, Corn: 0
corn; [4]
  Plant response rating, Corn: 0
corn; [5]
  Corn plant response rating: 0
corn; Preemergence, Rate 250 g/ha
  Corn plant response rating (0 to 10 scale): 0
corn; [7]
  Corn plant response rating: 0
corn; [6]
  Plant response rating, Corn: 0
rape; [1]
  Rape plant response rating: 0
rape; [2]
  Rape plant response rating: 0
rape; [3]
  Plant response rating, Rape: 3
rape; [4]
  Plant response rating, Rape: 0
rape; [5]
  Rape plant response rating: 0
rape; Preemergence, Rate 250 g/ha
  Rape plant response rating (0 to 10 scale): 0
rape; [6]
  Plant response rating, Rape: 3
Surinam grass; [1]
  B. signalgrass plant response rating: 0
Surinam grass; [2]
  B. signalgrass plant response rating: 0
Surinam grass; [3]
  Plant response rating, B. signalgrass: 0
Surinam grass; [4]
  Plant response rating, B. signalgrass: 0
Surinam grass; [5]
  B. signalgrass plant response rating: 0
Surinam grass; Preemergence, Rate 250 g/ha
  B. signalgrass plant response rating (0 to 10 scale, 0 is no effect, 10 is complete control): 0
Surinam grass; [6]
  Plant response rating, B. signalgrass: 0
bedstraw; [1]
  Bedstraw plant response rating: 0
bedstraw; [2]
  Bedstraw plant response rating: 0
bedstraw; [3]
  Plant response rating, Bedstraw: 8
bedstraw; [4]
  Plant response rating, Bedstraw: 0
bedstraw; [5]
  Bedstraw plant response rating: 0
bedstraw; Preemergence, Rate 250 g/ha
  Bedstraw plant response rating (0 to 10 scale): 0
bedstraw; [6]
  Plant response rating, Bedstraw: 0
blackgrass; [1]
  Blackgrass plant response rating: 0
blackgrass; [2]
  Blackgrass plant response rating: 0
blackgrass; [3]
  Plant response rating, Blackgrass: 5
blackgrass; [4]
  Plant response rating, Blackgrass: 0
blackgrass; [5]
  Blackgrass plant response rating: 0
blackgrass; Preemergence, Rate 250 g/ha
  Blackgrass plant response rating (0 to 10 scale): 0
blackgrass; [6]
  Plant response rating, Blackgrass: 0
wheat; [1]
  Wheat plant response rating: 0
wheat; [2]
  Wheat plant response rating: 0
wheat; [3]
  Plant response rating, Wheat: 0
wheat; [4]
  Plant response rating, Wheat: 0
wheat; [5]
  Wheat plant response rating: 0
wheat; Preemergence, Rate 250 g/ha
  Wheat plant response rating (0 to 10 scale): 0
wheat; [6]
  Plant response rating, Wheat: 0
Sugar beet; [1]
  Sugarbeets plant response rating: 0
Sugar beet; [2]
  Sugarbeets plant response rating: 0
Sugar beet; [3]
  Plant response rating, Sugarbeets: 2
Sugar beet; [4]
  Plant response rating, Sugarbeets: 0
Sugar beet; [5]
  Sugarbeets plant response rating: 0
Sugar beet; Preemergence, Rate 250 g/ha
  Sugarbeets plant response rating (0 to 10 scale): 0
Sugar beet; [6]
  Plant response rating, Sugarbeets: 0
pigweed; [1]
  Redroot pigweed plant response rating: 0
pigweed; [2]
  Redroot pigweed plant response rating: 0
pigweed; [3]
  Plant response rating, Redroot pigweed: 0
pigweed; [4]
  Plant response rating, Redroot pigweed: 0
pigweed; [5]
  Redroot pigweed plant response rating: 0
pigweed; Preemergence, Rate 250 g/ha
  Redroot pigweed plant response rating (0 to 10 scale): 0
pigweed; [6]
  Plant response rating, Redroot pigweed: 0
velvetleaf; [1]
  Velvetleaf plant response rating: 0
velvetleaf; [2]
  Velvetleaf plant response rating: 4
velvetleaf; [3]
  Plant response rating, Velvetleaf: 5
velvetleaf; [4]
  Plant response rating, Velvetleaf: 0
velvetleaf; [5]
  Velvetleaf plant response rating: 0
velvetleaf; Preemergence, Rate 250 g/ha
  Velvetleaf plant response rating (0 to 10 scale): 0
velvetleaf; [7]
  Velvetleaf plant response rating: 0
velvetleaf; [6]
  Plant response rating, Velvetleaf: 4
Duck salad; [8]
  Plant response rating, Ducksalad (0 to 10 scale, 0 is no effect, 10 is complete control): 0
Duck salad; [9]
  Ducksalad plant response rating (0 to 10 scale, 0 is no effect, 10 is complete control): 0
Duck salad; [10]
  Ducksalad plant response rating: 0
Duck salad; [11]
  Ducksalad plant response rating: 0
